Source: ChEMBL document CHEMBL1201862, “PubChem BioAssay data set” (2004)
Activity calls are given as the source filed them. Rule as the data show it, for most assays here: actives have a measured EC50 and inactives only a lower limit.

Molecular target: T1, Heat shock factor protein 1 (Mus musculus, UniProt P38532)
T1 sequence (P38532 whole entry): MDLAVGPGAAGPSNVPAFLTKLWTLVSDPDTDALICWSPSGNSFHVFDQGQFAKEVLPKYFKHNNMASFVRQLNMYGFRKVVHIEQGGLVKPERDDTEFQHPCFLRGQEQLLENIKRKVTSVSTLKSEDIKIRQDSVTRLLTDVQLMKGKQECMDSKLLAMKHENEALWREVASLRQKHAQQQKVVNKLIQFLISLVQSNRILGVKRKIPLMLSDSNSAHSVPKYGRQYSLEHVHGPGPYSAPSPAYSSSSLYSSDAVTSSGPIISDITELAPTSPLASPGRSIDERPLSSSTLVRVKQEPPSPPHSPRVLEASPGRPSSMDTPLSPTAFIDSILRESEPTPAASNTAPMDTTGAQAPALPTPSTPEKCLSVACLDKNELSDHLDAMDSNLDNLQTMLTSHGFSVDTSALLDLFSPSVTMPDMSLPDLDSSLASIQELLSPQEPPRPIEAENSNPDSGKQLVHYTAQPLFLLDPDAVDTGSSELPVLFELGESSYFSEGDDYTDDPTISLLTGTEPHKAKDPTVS
Test: inhibition of MG132-induced HSE-luciferase signal, confirmation, cell-based, NIH3T3, luminescence, dose retest (AID 2382);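 also: NIH3T3 fibroblasts with HSF1-driven luciferase reporter stressed by proteasome inhibitor MG132; luminescence from HSF1-driven luciferase expression after 8 hours of MG132 stress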
Type: functional
Settings: not given

Row | EC50 | SMILES
1 | 33.4 µM (active) | CC1CN(C(=O)C(C)N2C(=O)c3ccccc3C2=O)CC(C)O1 (centres undefined)
2 | > 195 µM (not active) | O=C(O)C1CCCCC1C(=O)Nc1cccc(C(=O)N2CCCCC2)c1 (centres undefined)
3 | > 195 µM (not active) | COc1cccc(CC2(CO)CCN(S(=O)(=O)c3ccc(OC)cc3OC)CC2)c1
4 | > 195 µM (not active) | CC(=O)c1ccc(OCC(O)CN2CCN(Cc3ccc4c(c3)OCO4)CC2)cc1 (centres undefined)
5 | 35.8 µM (active) | CCc1ccccc1N(CC(=O)NCc1ccco1)C(=O)CCC(=O)Nc1ccccn1
6 | < 0.16 µM (active) | Cc1ccccc1NC(S)=NNC(=O)c1csc2c1CCC(C)C2 (centres undefined)
7 | > 195 µM (not active) | O=C(Nc1cnn(Cc2ccc(F)cc2)c1)c1cc(-c2ccco2)on1

Molecular target: Cytochrome P450 3A4 (Homo sapiens, UniProt P08684);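 also: CYP3A4 tested as one member of a cytochrome P450 panel screen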
Sequence (P08684 whole entry): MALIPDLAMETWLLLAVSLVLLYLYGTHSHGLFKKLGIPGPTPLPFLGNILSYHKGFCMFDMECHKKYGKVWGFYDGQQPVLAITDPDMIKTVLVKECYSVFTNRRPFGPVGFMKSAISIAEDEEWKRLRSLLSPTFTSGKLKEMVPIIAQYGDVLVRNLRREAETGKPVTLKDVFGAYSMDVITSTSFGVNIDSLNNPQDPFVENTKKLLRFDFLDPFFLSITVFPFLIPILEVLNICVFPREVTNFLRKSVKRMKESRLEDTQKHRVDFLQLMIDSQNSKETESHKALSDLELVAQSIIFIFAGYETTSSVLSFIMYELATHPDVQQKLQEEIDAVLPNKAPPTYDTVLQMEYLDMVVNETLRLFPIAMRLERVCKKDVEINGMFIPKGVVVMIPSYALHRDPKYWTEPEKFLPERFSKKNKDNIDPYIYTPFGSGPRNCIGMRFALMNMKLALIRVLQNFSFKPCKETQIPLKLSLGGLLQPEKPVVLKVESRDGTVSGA
Test: not given
Settings: not given

Row | AC50 | SMILES
8 | 22.4 µM (inconclusive) | CS(=O)(=O)c1nc(-c2ccccc2)cc(-c2ccccc2)c1C#N

Tested on: H9c2;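 also: confirmatory concentration-response retest of ultra-high-throughput screening hits for modulation of myocardial damage; cell death induced by hydrogen peroxide oxidative stress; compound pretreatment for 60 min then peroxide exposure for 2 h; potency is for protecting the cells against peroxide damage rather than for killing them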
Test: cells
Type: functional, cell-based
Settings: Rattus norvegicus, H9c2, Myocardium

Row | SMILES | IC50
9 | CCN(CC)C(=O)c1[nH]cnc1C(=O)NCC(=O)OCc1ccccc1 | 6.99 µM (active)
10 | CC(=O)NCc1ccc(-c2csc(NC(=O)CCc3nc(O)c4ccccc4n3)n2)s1 | > 79 µM (inactive)
11 | Cc1ccc(OCC(=O)Nc2nc(-c3ccccn3)cs2)c(C)c1 | > 79 µM (inactive)
12 | COc1ccc(-c2cc(C(F)(F)F)n3nc(C(=O)N4CCN(C(=O)c5ccco5)CC4)cc3n2)cc1 | 13 µM (active)
13 | COc1ccc(OCC(O)Cn2c(Nc3cccc(C)c3)nc3c2c(=O)n(C)c(=O)n3C)cc1 (centres undefined) | 10.1 µM (active)
14 | COc1ccc(Nc2nc(C(=O)N3CCc4cc(OC)c(OC)cc4C3)cs2)cc1 | > 79 µM (inactive)
15 | CN(CC(=O)Nc1cccc(F)c1)C(=O)CCc1nc(O)c2ccccc2n1 | > 79 µM (inactive)
16 | O=C(Nc1ccc2c(c1)nc(O)c1ccccc12)C(F)(F)F | > 79 µM (inactive)
17 | O=C(Cn1[nH]c(=O)c2ccccc2c1=O)N1CC=C(c2ccccc2)CC1 | > 79 µM (inactive)
18 | O=C(COC(=O)CCc1nc(O)c2ccccc2n1)NC(c1ccccc1)c1ccccc1 | > 79 µM (inactive)
19 | COC(=O)c1ccccc1NC(=O)/C=C/c1cc(OC)c(OC)c(OC)c1 | 10.5 µM (active)
20 | c1ccc(N2CCOCC2)c(Nc2nc3ccccc3n3cnnc23)c1 | > 79 µM (inactive)
21 | Cc1ccc(NC(=O)c2[nH]cnc2C(=O)NCCCCCCNC(=O)c2nc[nH]c2C(=O)Nc2ccc(C)cc2)cc1 | > 79 µM (inactive)
22 | CC(C)(C)OC(=O)C[C@@H]1C/C=C\C[C@@H](CC(=O)N[C@@H](CO)Cc2ccccc2)C(=O)NC[C@@H](c2ccccc2)OC1=O | 11.1 µM (active)
23 | O=C(CN1CCN(c2ccccn2)CC1)Nc1ccc([N+](=O)[O-])cc1C(=O)Nc1ccccc1F | > 79 µM (inactive)
24 | CC(C)(C)OC(=O)C[C@H]1C/C=C\C[C@H](CC(=O)N[C@H](CO)Cc2ccccc2)C(=O)N[C@H](Cc2ccccc2)COC1=O | > 79 µM (inactive)

Tested on: not listed separately
Test: cytotoxicity toward NIH3T3 fibroblasts, dose response, counter-screen, cell-based, ATP luminescence, mouse fibroblasts (AID 2010);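 also: cells exposed to compound for about 90 hours before reading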
Type: functional
Settings: not given

Row | SMILES | EC50
25 | CCOc1ccc(S(=O)(=O)c2c(C(=O)c3ccccc3)cnc3cc4c(cc23)OCCO4)cc1 | 17.8 µM (active)

Tested on: Streptococcus
Test: Group A Streptococcus viability loss, dose response, counter-screen for streptokinase expression inhibitor project, luminescence, BacTiterGlo (AID 1915);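 also: potency for reduction of bacterial viability or growth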
Type: functional, organism-based
Settings: not given

Row | SMILES | EC50
26 | Cc1ccc(OCC(=O)Nc2nc(-c3ccccn3)cs2)c(C)c1 | 4.62 µM (active)

Tested on: Streptococcus sp. 'group A'
Test: growth inhibition of control SK(-) GAS strain, dose response, counter-screen for streptokinase expression inhibitor project, luminescence, kanamycin, BacTiterGlo, confirmation (AID 1900)
Type: functional, organism-based
Settings: not given

Row | SMILES | EC50
27 | Cc1ccc(OCC(=O)Nc2nc(-c3ccccn3)cs2)c(C)c1 | 1.08 µM (active)

Molecular target: T1, Heat shock factor protein 1
Test: HSF1 potentiators in luciferase reporter cells, confirmation, cell-based, NIH3T3, luminescence, dose retest (AID 435004);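 also: stress induced by proteasome inhibitor MG132 added 30 min after compound; luciferase reporter driven by HSF1 response element in NIH3T3 cells; actives raise luminescence as potentiators of the MG132 stress response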
Type: functional
Settings: not given

Row | SMILES | EC50
28 | CS(=O)(=O)c1nc(-c2ccccc2)cc(-c2ccccc2)c1C#N | 16.7 µM (active)
29 | CCOc1ccc(S(=O)(=O)c2c(C(=O)c3ccccc3)cnc3cc4c(cc23)OCCO4)cc1 | > 260 µM (inactive)

Further lines, results first:

Row | EC50 | SMILES
30 | > 260 µM (inactive) | O=C(NCCN1CCN(C(=O)c2ccc(Br)cc2)CC1)c1ccc(Br)cc1
31 | > 260 µM (inactive) | Cc1cccc(OCC(=O)Nc2ccc3c(c2)nc(CCN2CCCCC2)n3C)c1
32 | > 260 µM (inactive) | COc1ccc2c(c1)-c1c(sn(-c3ccccc3)c1=S)C(C)(C)N2
33 | > 260 µM (inactive) | CC1CCN(C(c2ccc(N(C)C)cc2)c2nnnn2Cc2ccccc2)CC1 (centres undefined)
34 | > 260 µM (inactive) | NS(=O)(=O)c1ccc(NC(=O)CN2C(=O)CCC2=O)cc1
35 | > 260 µM (inactive) | Cc1cccc(-[n+]2c(C)cc(C)c3c(=O)[nH]c(=O)[nH]c32)c1
36 | > 260 µM (inactive) | CC(C)NC(=O)CN(C(=O)CCC(=O)Nc1nccs1)c1ccc2c(c1)OCO2
37 | > 260 µM (inactive) | C/C(CCc1oc2c(Br)cc(Br)cc2c1-c1ccc(C)o1)=N\O
38 | > 260 µM (inactive) | CCOc1ccc(S(=O)(=O)NN=C(S)Nc2ccc(Br)cc2)cc1

Tested on: not listed separately
Test: inhibitors of intracellular T. cruzi replication, confirmation, NIH3T3 host cells, beta-gal luminescence (AID 2044);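 also: intracellular parasites grown in NIH/3T3 mouse fibroblasts as host cells; luminescent beta-galactosidase reporter signal from transgenic T. cruzi replicating inside host cells; inhibitors lower the luminescence signal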
Type: functional, cell-based
Settings: not given

Row | SMILES | EC50
39 | CCOc1ccc(S(=O)(=O)c2c(C(=O)c3ccccc3)cnc3cc4c(cc23)OCCO4)cc1 | 2.43 µM (active)
